These results are taken from patent publication US7528138B2, “Pyrazolo[1,5-a]pyrimidines useful as inhibitors of protein kinases” (Vertex Pharmaceuticals Incorporated, priority 2004, dated 2009).

What all share (format): biochemical
Test [1] deals with c-Met (Homo sapiens, UniProt P08581). The experiment in a line: c-Met Inhibition Assay, coupled enzyme system. The settings on record: enzyme inhibition data (Ki), Table 11. How it is done: Compounds are screened for their ability to inhibit c-Met kinase activity using a standard coupled enzyme system (Fox et al., Protein Sci. 1998, 7, 2249). Reactions are carried out in a solution containing 100 mM HEPES (pH 7.5), 10 mM MgCl2, 25 mM NaCl, 300 μM NADH, 1 mM DTT, and 1.5% DMSO. Final substrate concentrations in the assay are 200 μM ATP (Sigma Chemicals, St Louis, Mo.) and 10 μM polyGluTyr (Sigma Chemical Company, St. Louis). Reactions are carried out at 30° C. and 80 nM c-Met. Final concentrations of the components of the coupled enzyme system are 2.5 mM phosphoenolpyruvate, 300 μM NADH, 30 μg/ml pyruvate kinase and 10 μg/ml lactate dehydrogenase.
An assay stock buffer solution is prepared containing all of the reagents listed above with the exception of ATP and a test compound of the present invention. The assay stock buffer solution (175 μl) is incubated in a 96 well plate with 5 μl of the test compound of the present invention at final concentrations spanning 0.006 μM to 12.5 μM at 30° C. for 10 minutes. Typically, a 12-point titration is conducted by preparing serial dilutions (from 10 mM compound stocks) with DMSO of the test compounds of the present invention in daughter plates. The reaction is initiated by the addition of 20 μl of ATP (final concentration 200 μM). Rates of reaction are obtained using a Molecular Devices Spectramax plate reader (Sunnyvale, Calif.) over 10 minutes at 30° C. The Ki values are determined from the rate data as a function of inhibitor concentration.

Test [2] addresses T1, Itk (Homo sapiens, UniProt Q08881).
T1 sequence (Q08881 1-620): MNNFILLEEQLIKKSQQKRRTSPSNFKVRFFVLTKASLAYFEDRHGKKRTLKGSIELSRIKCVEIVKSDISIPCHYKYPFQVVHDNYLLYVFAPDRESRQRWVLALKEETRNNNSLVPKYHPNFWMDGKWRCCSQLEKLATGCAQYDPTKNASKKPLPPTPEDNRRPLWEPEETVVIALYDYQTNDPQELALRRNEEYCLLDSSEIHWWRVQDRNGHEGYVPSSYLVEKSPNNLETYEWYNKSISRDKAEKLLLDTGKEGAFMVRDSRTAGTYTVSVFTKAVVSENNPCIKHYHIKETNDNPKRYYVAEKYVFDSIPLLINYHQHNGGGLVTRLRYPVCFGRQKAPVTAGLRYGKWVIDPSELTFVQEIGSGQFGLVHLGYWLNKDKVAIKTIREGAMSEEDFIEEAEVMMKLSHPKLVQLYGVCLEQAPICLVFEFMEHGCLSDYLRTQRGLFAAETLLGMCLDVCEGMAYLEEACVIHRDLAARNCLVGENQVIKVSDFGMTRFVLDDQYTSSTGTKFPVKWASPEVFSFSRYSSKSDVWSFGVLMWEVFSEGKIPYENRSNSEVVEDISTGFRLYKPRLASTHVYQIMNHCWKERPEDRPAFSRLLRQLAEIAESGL
The experiment in a line: ITK Inhibition Assay (Radiometric), radioactive-phosphate incorporation. The settings on record: enzyme inhibition data (Ki), Table 11; radiometric or UV assay not stated. How it is done: Assays are carried out in a mixture of 20 mM MOPS (pH 7.0), 10 mM MgCl2, 0.1% BSA and 1 mM DTT. Final substrate concentrations in the assay are 7.5 μM [γ-33P]ATP (400 mCi 33P ATP/mmol ATP, Amersham Pharmacia Biotech/Sigma Chemicals) and 3 μM peptide (SAM68 protein D332-443). Assays are carried out at 25° C. in the presence of 50 nM Itk. An assay stock buffer solution is prepared containing all of the reagents listed above, with the exception of ATP and the test compound of interest. 50 μL of the stock solution is placed in a 96 well plate followed by addition of 2 μL of DMSO stock containing serial dilutions of the test compound (typically starting from a final concentration of 50 μM with 2-fold serial dilutions) in duplicate (final DMSO concentration 2%). The plate is pre-incubated for 10 minutes at 25° C. and the reaction initiated by addition of 50 μL [γ-33P]ATP (final concentration 7.5 μM).
The reaction is stopped after 10 minutes by the addition of […] 0.2M phosphoric acid+0.01% TWEEN 20. A multiscreen phosphocellulose filter 96-well plate (Millipore, Cat no. MAPHN0B50) is pretreated with 100 μL 0.2M phosphoric acid +0.01% TWEEN 20 prior to the addition of […] of the stopped assay mixture. The plate is washed with 4×200 μL 0.2M phosphoric acid+0.01% TWEEN 20. After drying, 30 μL Optiphase ‘SuperMix’ liquid scintillation cocktail (Perkin Elmer) is added to the well prior to scintillation counting (1450 Microbeta Liquid Scintillation Counter, Wallac).
Ki(app) data are calculated from non-linear regression analysis of the initial rate data using the Prism software package (GraphPad Prism version 3.0cx for Macintosh, GraphPad Software, San Diego Calif., USA).

In test [3] the target is T2, JAK3 (Homo sapiens, UniProt P52333).
T2 sequence (P52333 1-1124): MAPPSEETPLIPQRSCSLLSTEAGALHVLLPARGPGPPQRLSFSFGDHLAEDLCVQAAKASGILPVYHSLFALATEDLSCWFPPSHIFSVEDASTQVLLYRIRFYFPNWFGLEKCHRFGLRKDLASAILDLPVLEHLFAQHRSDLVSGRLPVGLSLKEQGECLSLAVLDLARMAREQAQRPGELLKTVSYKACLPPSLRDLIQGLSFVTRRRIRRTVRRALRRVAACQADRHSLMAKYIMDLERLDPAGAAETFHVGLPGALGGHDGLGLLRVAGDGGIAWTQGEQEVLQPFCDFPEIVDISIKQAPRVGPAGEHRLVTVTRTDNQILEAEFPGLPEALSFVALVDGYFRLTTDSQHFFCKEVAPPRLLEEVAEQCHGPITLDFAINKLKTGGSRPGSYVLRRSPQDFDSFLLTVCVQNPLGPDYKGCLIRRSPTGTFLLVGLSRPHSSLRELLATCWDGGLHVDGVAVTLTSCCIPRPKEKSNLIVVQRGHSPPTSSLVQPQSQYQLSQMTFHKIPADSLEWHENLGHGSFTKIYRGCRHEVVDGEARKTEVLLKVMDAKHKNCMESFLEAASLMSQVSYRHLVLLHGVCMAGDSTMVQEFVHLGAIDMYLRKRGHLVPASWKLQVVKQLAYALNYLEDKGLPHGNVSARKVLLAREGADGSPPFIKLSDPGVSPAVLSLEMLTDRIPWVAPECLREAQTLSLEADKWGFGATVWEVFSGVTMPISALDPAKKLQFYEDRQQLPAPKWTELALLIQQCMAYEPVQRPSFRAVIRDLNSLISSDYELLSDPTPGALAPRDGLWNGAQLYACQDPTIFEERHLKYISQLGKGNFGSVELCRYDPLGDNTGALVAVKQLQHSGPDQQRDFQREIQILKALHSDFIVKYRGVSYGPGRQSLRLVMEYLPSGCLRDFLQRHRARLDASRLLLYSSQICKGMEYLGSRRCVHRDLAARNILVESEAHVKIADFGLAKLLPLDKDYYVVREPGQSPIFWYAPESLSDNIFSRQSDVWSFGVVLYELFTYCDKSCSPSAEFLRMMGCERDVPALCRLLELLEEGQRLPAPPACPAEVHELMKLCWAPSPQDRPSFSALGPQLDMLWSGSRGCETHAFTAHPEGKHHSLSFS
The experiment in a line: JAK3 Inhibition Assay, 33P incorporation. The settings on record: enzyme inhibition data (Ki), Table 11. How it is done: Reactions are carried out in a kinase buffer containing 100 mM HEPES (pH 7.4), 1 mM DTT, 10 mM MgCl2, 25 mM NaCl, and 0.01% BSA. Substrate concentrations in the assay are 5 μM ATP (200 uCi/μmole ATP) and 1 μM poly(Glu)4Tyr. Reactions are carried out at 25° C. and 1 nM JAK3. To each well of a 96 well polycarbonate plate is added 1.5 μl of a candidate JAK3 inhibitor along with 50 μl of kinase buffer containing 2 μM poly(Glu)4Tyr and 10 μM ATP. This is then mixed and 50 μl of kinase buffer containing 2 nM JAK3 enzyme is added to start the reaction. After 20 minutes at room temperature (25 C), the reaction is stopped with 50 μl of 20% trichloroacetic acid (TCA) that also contained 0.4 mM ATP. The entire contents of each well are then transferred to a 96 well glass fiber filter plate using a TomTek Cell Harvester. After washing, 60 μl of scintillation fluid is added and ^33P incorporation detected on a Perkin Elmer TopCount.

Sequence of c-Met (P08581 25-1390): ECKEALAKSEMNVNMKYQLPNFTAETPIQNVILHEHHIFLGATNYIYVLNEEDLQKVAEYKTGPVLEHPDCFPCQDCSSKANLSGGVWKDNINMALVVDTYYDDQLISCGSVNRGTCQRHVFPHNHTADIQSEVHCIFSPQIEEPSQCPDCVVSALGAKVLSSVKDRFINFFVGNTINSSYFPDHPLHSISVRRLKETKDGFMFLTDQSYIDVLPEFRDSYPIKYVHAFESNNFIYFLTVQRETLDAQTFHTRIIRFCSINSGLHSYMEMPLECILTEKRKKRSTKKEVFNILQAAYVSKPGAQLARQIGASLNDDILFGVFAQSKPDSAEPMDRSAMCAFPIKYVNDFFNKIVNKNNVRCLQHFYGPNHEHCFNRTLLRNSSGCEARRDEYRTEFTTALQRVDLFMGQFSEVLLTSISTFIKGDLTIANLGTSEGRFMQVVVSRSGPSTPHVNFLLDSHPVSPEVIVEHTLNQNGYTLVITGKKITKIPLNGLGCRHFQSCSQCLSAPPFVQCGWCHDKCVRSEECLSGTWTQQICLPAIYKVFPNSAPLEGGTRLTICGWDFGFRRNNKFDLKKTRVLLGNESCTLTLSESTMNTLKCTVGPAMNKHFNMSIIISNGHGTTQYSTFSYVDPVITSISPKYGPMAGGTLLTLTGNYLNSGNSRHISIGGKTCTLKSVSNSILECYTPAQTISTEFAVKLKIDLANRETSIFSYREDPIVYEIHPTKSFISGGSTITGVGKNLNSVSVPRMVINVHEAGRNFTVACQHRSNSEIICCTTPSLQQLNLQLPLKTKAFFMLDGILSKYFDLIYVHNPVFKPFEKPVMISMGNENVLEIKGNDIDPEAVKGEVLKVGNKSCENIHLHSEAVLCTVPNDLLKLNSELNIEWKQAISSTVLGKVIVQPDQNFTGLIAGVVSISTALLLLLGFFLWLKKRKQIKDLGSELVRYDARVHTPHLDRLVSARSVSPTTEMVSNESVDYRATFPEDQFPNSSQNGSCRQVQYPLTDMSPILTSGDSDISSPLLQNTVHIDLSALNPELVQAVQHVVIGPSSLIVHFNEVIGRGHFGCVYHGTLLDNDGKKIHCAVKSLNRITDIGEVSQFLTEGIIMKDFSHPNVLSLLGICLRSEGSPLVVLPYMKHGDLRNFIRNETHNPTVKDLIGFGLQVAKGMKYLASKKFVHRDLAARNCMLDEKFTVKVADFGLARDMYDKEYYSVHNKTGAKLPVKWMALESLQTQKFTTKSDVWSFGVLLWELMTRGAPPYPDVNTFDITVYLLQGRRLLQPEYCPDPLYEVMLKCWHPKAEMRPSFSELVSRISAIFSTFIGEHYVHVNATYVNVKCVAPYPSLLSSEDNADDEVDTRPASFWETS

For orientation: Ki means a measure of affinity in units of concentration, obtained from inhibition or displacement. With `CC(C)N(C)C(=O)c1cccc(-c2cnc3c(-c4ccccn4)c(N)nn3c2)n1` [Compound V-103], the figures for the inhibition constant Ki in test [1], in test [2] and in test [3] were below 0.5 µM, 0.5 to 5 µM and above 5 µM, respectively.

As for `COc1cccc(OC)c1-c1cnc2c(-c3ccccn3)c(N)nn2c1` [Compound V-3], the Ki in test [1] was 0.5 to 5 µM; in test [2] it was 0.5 to 5 µM; in test [3], above 5 µM.

As to `Nc1nn2cc(-c3ccccc3O)cnc2c1-c1ccccn1` [Compound V-8], the figures for the Ki in test [1], in test [2] and in test [3] were 0.5 to 5 µM, 0.5 to 5 µM and above 5 µM, respectively.

For the compound `CCN(CC)CCCc1cnc2c(-c3ccccn3)c(N)nn2c1` [Compound V-319], the Ki in test [1] is below 0.5 µM; in test [2] it was 0.5 to 5 µM; in test [3] it was above 5 µM.

As for `Nc1nn2cc(-c3ccccn3)cnc2c1C(=O)NCc1ccc(Cl)c(Cl)c1` [Compound V-47], the Ki in test [1] is 0.5 to 5 µM; in test [2], 0.5 to 5 µM; in test [3], above 5 µM.

Take `Nc1nn2cc(-c3ccncn3)cnc2c1C(=O)N[C@H](CO)c1ccccc1` [Compound V-46]: the inhibition constant Ki in test [1] was 0.5 to 5 µM; in test [2], 0.5 to 5 µM; in test [3], above 5 µM.

`Cc1cccc(C)c1-c1cnc2c(-c3ccccn3)c(N)nn2c1` [Compound V-4]: the results for the inhibition constant (Ki) in test [1], in test [2] and in test [3] were 0.5 to 5 µM, 0.5 to 5 µM and above 5 µM, respectively.

On to `COCCCNC(=O)c1cccc(-c2cnc3c(-c4ccccn4)c(N)nn3c2)n1` [Compound V-108], for which the inhibition constant (Ki) in test [1] is below 0.5 µM; in test [2], 0.5 to 5 µM; in test [3], above 5 µM.

In the case of `Nc1nn2cc(-c3ccnc(N4CCN(CCO)CC4)c3)cnc2c1-c1ccccn1` [Compound V-248], the figures for the inhibitory constant (Ki) in test [1], in test [2] and in test [3] were below 0.5 µM, 0.5 to 5 µM and 0.5 to 5 µM, respectively.

As for `Nc1nn2cc(-c3cccc(C(=O)N4CCC(N)C4)n3)cnc2c1-c1ccccn1` (stereo not drawn) [Compound V-119], the values for the inhibition constant (Ki) in test [1], in test [2] and in test [3] were below 0.5 µM, 0.5 to 5 µM and 0.5 to 5 µM, respectively.

Take `Nc1nn2cc(-c3ccnc(N4CCN(c5cnccn5)CC4)c3)cnc2c1-c1ccccn1` [Compound V-255]: the values for the Ki in test [1], in test [2] and in test [3] were 0.5 to 5 µM, 0.5 to 5 µM and above 5 µM, respectively.

Regarding `CCOC(=O)N1CCN(c2ccc(-c3cnc4c(-c5ccccn5)c(N)nn4c3)cn2)CC1` [Compound V-174], the inhibition constant Ki in test [1] was 0.5 to 5 µM; in test [2], 0.5 to 5 µM; in test [3], above 5 µM.

Take `Nc1nn2cc(-c3ccc(N4CCN(CCO)CC4)nc3)cnc2c1-c1ccccn1` [Compound V-148]: the Ki was below 0.5 µM in test [1], below 0.5 µM in test [2] and 0.5 to 5 µM in test [3].

As to `Cc1ccccc1-c1cnc2c(-c3ccccn3)c(N)nn2c1` [Compound V-7], the Ki is 0.5 to 5 µM in test [1], 0.5 to 5 µM in test [2] and above 5 µM in test [3].

For the compound `CCN1CCN(CCCc2cnc3c(-c4ccccn4)c(N)nn3c2)CC1` [Compound V-315], the inhibition constant Ki in test [1] is 0.5 to 5 µM; in test [2], 0.5 to 5 µM; in test [3], above 5 µM.

For `Cc1cnc2c(-c3cc(NC4CCN(C)CC4)ncn3)c(N)nn2c1` [Compound V-284], the Ki is below 0.5 µM in test [1], 0.5 to 5 µM in test [2] and 0.5 to 5 µM in test [3].

`Nc1nn2cc(-c3ccc(C(=O)N4CCC[C@@H]4CN4CCCC4)cn3)cnc2c1-c1ccccn1` [Compound V-153]: the Ki in test [1] is below 0.5 µM; in test [2], below 0.5 µM; in test [3] it was 0.5 to 5 µM.

Take `Nc1nn2cc(-c3ccc(C(=O)N4CCC(N)CC4)cn3)cnc2c1-c1ccccn1` [Compound V-69]: the results for the Ki in test [1], in test [2] and in test [3] were below 0.5 µM, below 0.5 µM and 0.5 to 5 µM, respectively.

As to `Nc1nn2cc(C(=O)NCCc3ccccc3)cnc2c1-c1ccccn1` [Compound V-198], the Ki in test [1] is 0.5 to 5 µM; in test [2] it was 0.5 to 5 µM; in test [3] it was above 5 µM.

As for `CCCCNC(=O)c1ccc(-c2cnc3c(-c4ccccn4)c(N)nn3c2)nc1` [Compound V-77], the inhibitory constant (Ki) in test [1] was 0.5 to 5 µM; in test [2], 0.5 to 5 µM; in test [3] it was above 5 µM.

Consider `CCCCN(CCN)C(=O)c1cccc(-c2cnc3c(-c4ccccn4)c(N)nn3c2)n1` [Compound V-113], for which the inhibition constant Ki in test [1] was below 0.5 µM; in test [2], below 0.5 µM; in test [3], 0.5 to 5 µM.
